Measured values from ChEMBL document CHEMBL1240349, “Influence of tigecycline on expression of virulence factors in biofilm-associated cells of methicillin-resistant Staphylococcus aureus” (2010).

What was measured:
Format in all cases: functional
Staphylococcus aureus [1] = assay: Increase in recU gene expression in biofilm-associated cells of epidemic methicillin-resistant Staphylococcus aureus isolate 16 at 4 times MIC incubated for 1 hr by whole genome microarray relative to untreated control
Staphylococcus aureus [2] = assay: Decrease in asp23 gene expression in biofilm-associated cells of epidemic methicillin-resistant Staphylococcus aureus isolate 16 at 4 times MIC incubated for 1 hr by whole genome microarray relative to untreated control
Staphylococcus aureus [3] = assay: Decrease in clpC expression in biofilm-associated cells of epidemic methicillin-resistant Staphylococcus aureus isolate 15 at 4 times MIC incubated for 1 hr by RT-PCR relative to untreated control
Staphylococcus aureus [4] = assay: Increase in ssaA gene expression in biofilm-associated cells of epidemic methicillin-resistant Staphylococcus aureus isolate 16 at 4 times MIC incubated for 1 hr by whole genome microarray relative to untreated control
Staphylococcus aureus [5] = assay: Decrease in polA gene expression in biofilm-associated cells of epidemic methicillin-resistant Staphylococcus aureus isolate 16 at 4 times MIC incubated for 1 hr by whole genome microarray relative to untreated control
Staphylococcus aureus [6] = assay: Increase in infC gene expression in biofilm-associated cells of epidemic methicillin-resistant Staphylococcus aureus isolate 16 at 4 times MIC incubated for 1 hr by whole genome microarray relative to untreated control
Staphylococcus aureus [7] = assay: Increase in isaA expression in biofilm-associated cells of epidemic methicillin-resistant Staphylococcus aureus isolate 16-1 at 4 times MIC incubated for 1 hr by RT-PCR relative to untreated control
Staphylococcus aureus [8] = assay: Increase in ssaA gene expression in biofilm-associated cells of epidemic methicillin-resistant Staphylococcus aureus isolate 16 at 4 times MIC incubated for 1 hr by RT-PCR relative to untreated control
Staphylococcus aureus [9] = assay: Increase in fnbB gene expression in biofilm-associated cells of epidemic methicillin-resistant Staphylococcus aureus isolate 16 at 4 times MIC incubated for 1 hr by RT-PCR relative to untreated control
Staphylococcus aureus [10] = assay: Increase in tuf gene expression in biofilm-associated cells of epidemic methicillin-resistant Staphylococcus aureus isolate 16 at 4 times MIC incubated for 1 hr by whole genome microarray relative to untreated control
Staphylococcus aureus [11] = assay: Increase in cna expression in biofilm-associated cells of epidemic methicillin-resistant Staphylococcus aureus isolate 16-2 at 4 times MIC incubated for 1 hr by RT-PCR relative to untreated control
Staphylococcus aureus [12] = assay: Increase in cna gene expression in biofilm-associated cells of epidemic methicillin-resistant Staphylococcus aureus isolate 16 at 4 times MIC incubated for 1 hr by whole genome microarray relative to untreated control
Staphylococcus aureus [13] = assay: Increase in clfB gene expression in biofilm-associated cells of epidemic methicillin-resistant Staphylococcus aureus isolate 16 at 4 times MIC incubated for 1 hr by RT-PCR relative to untreated control
Staphylococcus aureus [14] = assay: Increase in isaA expression in biofilm-associated cells of epidemic methicillin-resistant Staphylococcus aureus isolate 16-2 at 4 times MIC incubated for 1 hr by RT-PCR relative to untreated control
Staphylococcus aureus [15] = assay: Decrease in clpC expression in biofilm-associated cells of epidemic methicillin-resistant Staphylococcus aureus isolate 16-2 at 4 times MIC incubated for 1 hr by RT-PCR relative to untreated control
Staphylococcus aureus [16] = assay: Decrease in sodA gene expression in biofilm-associated cells of epidemic methicillin-resistant Staphylococcus aureus isolate 16 at 4 times MIC incubated for 1 hr by whole genome microarray relative to untreated control
Staphylococcus aureus [17] = assay: Decrease in mnhG expression in biofilm-associated cells of epidemic methicillin-resistant Staphylococcus aureus isolate 16-2 at 4 times MIC incubated for 1 hr by RT-PCR relative to untreated control
Staphylococcus aureus [18] = assay: Decrease in mnhG expression in biofilm-associated cells of epidemic methicillin-resistant Staphylococcus aureus isolate 15 at 4 times MIC incubated for 1 hr by RT-PCR relative to untreated control
Staphylococcus aureus [19] = assay: Increase in fnbB gene expression in biofilm-associated cells of epidemic methicillin-resistant Staphylococcus aureus isolate 16 at 4 times MIC incubated for 1 hr by whole genome microarray relative to untreated control
Staphylococcus aureus [20] = assay: Increase in rplB gene expression in biofilm-associated cells of epidemic methicillin-resistant Staphylococcus aureus isolate 16 at 4 times MIC incubated for 1 hr by whole genome microarray relative to untreated control
Staphylococcus aureus [21] = assay: Decrease in capG gene expression in biofilm-associated cells of epidemic methicillin-resistant Staphylococcus aureus isolate 16 at 4 times MIC incubated for 1 hr by whole genome microarray relative to untreated control
Staphylococcus aureus [22] = assay: Increase in gapR gene expression in biofilm-associated cells of epidemic methicillin-resistant Staphylococcus aureus isolate 16 at 4 times MIC incubated for 1 hr by whole genome microarray relative to untreated control
Staphylococcus aureus [23] = assay: Increase in rpsH gene expression in biofilm-associated cells of epidemic methicillin-resistant Staphylococcus aureus isolate 16 at 4 times MIC incubated for 1 hr by whole genome microarray relative to untreated control
Staphylococcus aureus [24] = assay: Increase in dltB gene expression in biofilm-associated cells of epidemic methicillin-resistant Staphylococcus aureus isolate 16 at 4 times MIC incubated for 1 hr by whole genome microarray relative to untreated control
Staphylococcus aureus [25] = assay: Decrease in capG expression in biofilm-associated cells of epidemic methicillin-resistant Staphylococcus aureus isolate 16-2 at 4 times MIC incubated for 1 hr by RT-PCR relative to untreated control
Staphylococcus aureus [26] = assay: Increase in rho gene expression in biofilm-associated cells of epidemic methicillin-resistant Staphylococcus aureus isolate 16 at 4 times MIC incubated for 1 hr by whole genome microarray relative to untreated control
Staphylococcus aureus [27] = assay: Increase in rplN gene expression in biofilm-associated cells of epidemic methicillin-resistant Staphylococcus aureus isolate 16 at 4 times MIC incubated for 1 hr by whole genome microarray relative to untreated control
Staphylococcus aureus [28] = assay: Increase in topA gene expression in biofilm-associated cells of epidemic methicillin-resistant Staphylococcus aureus isolate 16 at 4 times MIC incubated for 1 hr by whole genome microarray relative to untreated control
Staphylococcus aureus [29] = assay: Decrease in capC gene expression in biofilm-associated cells of epidemic methicillin-resistant Staphylococcus aureus isolate 16 at 4 times MIC incubated for 1 hr by whole genome microarray relative to untreated control
Staphylococcus aureus [30] = assay: Decrease in tst expression in biofilm-associated cells of epidemic methicillin-resistant Staphylococcus aureus isolate 16-2 at 4 times MIC incubated for 1 hr by RT-PCR relative to untreated control
Staphylococcus aureus [31] = assay: Decrease in sasF expression in biofilm-associated cells of epidemic methicillin-resistant Staphylococcus aureus isolate 16-2 at 4 times MIC incubated for 1 hr by RT-PCR relative to untreated control
Staphylococcus aureus [32] = assay: Decrease in sdrD gene expression in biofilm-associated cells of epidemic methicillin-resistant Staphylococcus aureus isolate 16 at 4 times MIC incubated for 1 hr by whole genome microarray relative to untreated control
Staphylococcus aureus [33] = assay: Decrease in capG gene expression in biofilm-associated cells of epidemic methicillin-resistant Staphylococcus aureus isolate 16 at 4 times MIC incubated for 1 hr by RT-PCR relative to untreated control
Staphylococcus aureus [34] = assay: Increase in clfB gene expression in biofilm-associated cells of epidemic methicillin-resistant Staphylococcus aureus isolate 16 at 4 times MIC incubated for 1 hr by whole genome microarray relative to untreated control

How did the “fold change (FC)” value (Staphylococcus aureus [1]) turn out when `CN(C)c1cc(NC(=O)CNC(C)(C)C)c(O)c2c1C[C@H]1C[C@H]3[C@H](N(C)C)C(O)=C(C(N)=O)C(=O)[C@@]3(O)C(O)=C1C2=O` [TIGECYCLINE] was run?
Its value is 4.38.

What about the “fold change (FC)” value (Staphylococcus aureus [2]) of the same compound?
The value was 8.61.

What about the “fold change (FC)” value (Staphylococcus aureus [3]) of the same compound?
Its value is 1.23.

What about the “fold change (FC)” value (Staphylococcus aureus [4]) of the same compound?
The value was 2.84.

What about the “fold change (FC)” value (Staphylococcus aureus [5]) of the same compound?
The value was 2.11.

And the “fold change (FC)” value (Staphylococcus aureus [6])?
Its value is 6.29.

What about the “fold change (FC)” value (Staphylococcus aureus [7]) of the same compound?
The value was 7.68.

What about the “fold change (FC)” value (Staphylococcus aureus [8]) of the same compound?
The value was 2.04.

And the “fold change (FC)” value (Staphylococcus aureus [9])?
Its value is 3.03.

What about the “fold change (FC)” value (Staphylococcus aureus [10]) of the same compound?
Its value is 7.41.

And the “fold change (FC)” value (Staphylococcus aureus [11])?
The value was 1.2.

What about the “fold change (FC)” value (Staphylococcus aureus [12]) of the same compound?
The value was 2.1.

What about the “fold change (FC)” value (Staphylococcus aureus [13]) of the same compound?
The value was 7.5.

What about the “fold change (FC)” value (Staphylococcus aureus [14]) of the same compound?
Its value is 3.7.

What about the “fold change (FC)” value (Staphylococcus aureus [15]) of the same compound?
Its value is 19.87.

What about the “fold change (FC)” value (Staphylococcus aureus [16]) of the same compound?
The value was 2.59.

What about the “fold change (FC)” value (Staphylococcus aureus [17]) of the same compound?
The value was 6.99.

What about the “fold change (FC)” value (Staphylococcus aureus [18]) of the same compound?
The value was 1.64.

What about the “fold change (FC)” value (Staphylococcus aureus [19]) of the same compound?
The value was 5.34.

What about the “fold change (FC)” value (Staphylococcus aureus [20]) of the same compound?
Its value is 13.38.

What about the “fold change (FC)” value (Staphylococcus aureus [21]) of the same compound?
The value was 2.3.

What about the “fold change (FC)” value (Staphylococcus aureus [22]) of the same compound?
The value was 9.12.

What about the “fold change (FC)” value (Staphylococcus aureus [23]) of the same compound?
Its value is 14.86.

And the “fold change (FC)” value (Staphylococcus aureus [24])?
Its value is 2.02.

What about the “fold change (FC)” value (Staphylococcus aureus [25]) of the same compound?
The value was 1.96.

And the “fold change (FC)” value (Staphylococcus aureus [26])?
Its value is 2.15.

And the “fold change (FC)” value (Staphylococcus aureus [27])?
The value was 13.76.

What about the “fold change (FC)” value (Staphylococcus aureus [28]) of the same compound?
The value was 2.26.

And the “fold change (FC)” value (Staphylococcus aureus [29])?
Its value is 3.14.

And the “fold change (FC)” value (Staphylococcus aureus [30])?
The value was 5.52.

And the “fold change (FC)” value (Staphylococcus aureus [31])?
Its value is 3.53.

What about the “fold change (FC)” value (Staphylococcus aureus [32]) of the same compound?
Its value is 2.46.

What about the “fold change (FC)” value (Staphylococcus aureus [33]) of the same compound?
The value was 1.01.

And the “fold change (FC)” value (Staphylococcus aureus [34])?
Its value is 4.
